In PubChem BioAssay (NCI):
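Assay format: 96-well plates, 48-hour exposure. TGI: total growth inhibition.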

Tests used:
Assay in all cases: inhibition of tumour cell growth, NCI panel, 48 h
NCI-H522 lung = tested on: NCI-H522 lung
PC-3 prostate = tested on: PC-3 prostate
MCF7 breast = tested on: MCF7 breast
MALME-3M melanoma = tested on: MALME-3M melanoma
NCI-H23 lung = tested on: NCI-H23 lung
MDA-N = tested on: MDA-N
HCT-116 colon = tested on: HCT-116 colon
SR leukemia = tested on: SR leukemia
OVCAR-4 ovarian = tested on: OVCAR-4 ovarian
UACC-257 melanoma = tested on: UACC-257 melanoma
SK-MEL-2 melanoma = tested on: SK-MEL-2 melanoma
OVCAR-5 ovarian = tested on: OVCAR-5 ovarian
NCI-H460 lung = tested on: NCI-H460 lung
DU-145 prostate = tested on: DU-145 prostate
RPMI-8226 leukemia = tested on: RPMI-8226 leukemia
SW-620 colon = tested on: SW-620 colon
OVCAR-8 ovarian = tested on: OVCAR-8 ovarian
A498 renal = tested on: A498 renal
HCT-15 colon = tested on: HCT-15 colon
SK-MEL-28 melanoma = tested on: SK-MEL-28 melanoma
MDA-MB-435 = tested on: MDA-MB-435
HS 578T breast = tested on: HS 578T breast
A549 NSCLC = tested on: A549 NSCLC
SF-295 CNS = tested on: SF-295 CNS
SN12C renal = tested on: SN12C renal
MDA-MB-231 breast = tested on: MDA-MB-231 breast
EKVX NSCLC = tested on: EKVX NSCLC
U251 CNS = tested on: U251 CNS
UO-31 renal = tested on: UO-31 renal
SNB-75 CNS = tested on: SNB-75 CNS
UACC-62 melanoma = tested on: UACC-62 melanoma
TK-10 renal = tested on: TK-10 renal
BT-549 breast = tested on: BT-549 breast
OVCAR-3 ovarian = tested on: OVCAR-3 ovarian
786-0 renal = tested on: 786-0 renal
COLO 205 colon = tested on: COLO 205 colon
NCI-H226 lung = tested on: NCI-H226 lung
NCI/ADR-RES ovarian = tested on: NCI/ADR-RES ovarian
CAKI-1 renal = tested on: CAKI-1 renal
MOLT-4 leukemia = tested on: MOLT-4 leukemia
RXF 393 renal = tested on: RXF 393 renal
SK-OV-3 ovarian = tested on: SK-OV-3 ovarian
LOX IMVI melanoma = tested on: LOX IMVI melanoma
SF-268 CNS = tested on: SF-268 CNS
T-47D breast = tested on: T-47D breast
K-562 leukemia = tested on: K-562 leukemia
HOP-62 NSCLC = tested on: HOP-62 NSCLC
ACHN renal = tested on: ACHN renal
M14 melanoma = tested on: M14 melanoma
SNB-19 CNS = tested on: SNB-19 CNS
HCC-2998 colon = tested on: HCC-2998 colon
KM12 colon = tested on: KM12 colon
HT29 colon = tested on: HT29 colon
IGROV1 ovarian = tested on: IGROV1 ovarian
HOP-92 NSCLC = tested on: HOP-92 NSCLC
HL-60(TB) leukemia = tested on: HL-60(TB) leukemia
SK-MEL-5 melanoma = tested on: SK-MEL-5 melanoma
CCRF-CEM leukemia = tested on: CCRF-CEM leukemia
SF-539 CNS = tested on: SF-539 CNS

O=C(O)CN=C(C(=NCC(=O)O)c1ccccc1)c1ccccc1
TGI (NCI-H522 lung): > 100 µM | TGI (PC-3 prostate): > 100 µM | TGI (MCF7 breast): > 100 µM | TGI (MALME-3M melanoma): > 100 µM | TGI (NCI-H23 lung): > 100 µM | TGI (MDA-N): > 100 µM | TGI (HCT-116 colon): > 100 µM | TGI (SR leukemia): > 100 µM | TGI (OVCAR-4 ovarian): > 100 µM | TGI (UACC-257 melanoma): > 100 µM | TGI (SK-MEL-2 melanoma): > 100 µM | TGI (OVCAR-5 ovarian): > 100 µM | TGI (NCI-H460 lung): > 100 µM | TGI (DU-145 prostate): > 100 µM | TGI (RPMI-8226 leukemia): > 100 µM | TGI (SW-620 colon): > 100 µM | TGI (OVCAR-8 ovarian): > 100 µM | TGI (A498 renal): > 100 µM | TGI (HCT-15 colon): > 100 µM | TGI (SK-MEL-28 melanoma): > 100 µM | TGI (MDA-MB-435): > 100 µM | TGI (HS 578T breast): > 100 µM | TGI (A549 NSCLC): > 100 µM | TGI (SF-295 CNS): > 100 µM | TGI (SN12C renal): > 100 µM | TGI (MDA-MB-231 breast): > 100 µM | TGI (EKVX NSCLC): > 100 µM | TGI (U251 CNS): > 100 µM | TGI (UO-31 renal): > 100 µM | TGI (SNB-75 CNS): > 100 µM | TGI (UACC-62 melanoma): > 100 µM | TGI (TK-10 renal): > 100 µM | TGI (BT-549 breast): > 100 µM | TGI (OVCAR-3 ovarian): > 100 µM | TGI (786-0 renal): > 100 µM | TGI (COLO 205 colon): > 100 µM | TGI (NCI-H226 lung): > 100 µM | TGI (NCI/ADR-RES ovarian): > 100 µM | TGI (CAKI-1 renal): > 100 µM | TGI (MOLT-4 leukemia): > 100 µM | TGI (RXF 393 renal): > 100 µM | TGI (SK-OV-3 ovarian): > 100 µM | TGI (LOX IMVI melanoma): > 100 µM | TGI (SF-268 CNS): > 100 µM | TGI (T-47D breast): > 100 µM | TGI (K-562 leukemia): > 100 µM | TGI (HOP-62 NSCLC): > 100 µM | TGI (ACHN renal): > 100 µM | TGI (M14 melanoma): > 100 µM | TGI (SNB-19 CNS): > 100 µM | TGI (HCC-2998 colon): > 100 µM | TGI (KM12 colon): > 100 µM

Nc1nc(Cl)c(N)c(NCC2(CO)CC(Cc3ccccc3)C2)n1 (stereo not given)
TGI (NCI-H522 lung): > 100 µM | TGI (PC-3 prostate): > 100 µM | TGI (MCF7 breast): > 69.2 µM | TGI (HT29 colon): > 100 µM | TGI (IGROV1 ovarian): > 100 µM | TGI (MALME-3M melanoma): > 100 µM | TGI (NCI-H23 lung): > 100 µM | TGI (HOP-92 NSCLC): > 100 µM | TGI (MDA-N): > 100 µM | TGI (HCT-116 colon): > 100 µM | TGI (HL-60(TB) leukemia): 17.3 µM | TGI (OVCAR-4 ovarian): > 100 µM | TGI (UACC-257 melanoma): > 86.3 µM | TGI (SK-MEL-2 melanoma): > 100 µM | TGI (OVCAR-5 ovarian): > 100 µM | TGI (NCI-H460 lung): > 100 µM | TGI (DU-145 prostate): > 100 µM | TGI (RPMI-8226 leukemia): > 78.8 µM | TGI (SW-620 colon): > 100 µM | TGI (OVCAR-8 ovarian): > 100 µM | TGI (A498 renal): > 78.5 µM | TGI (HCT-15 colon): > 100 µM | TGI (SK-MEL-28 melanoma): > 100 µM | TGI (SK-MEL-5 melanoma): 18.5 µM | TGI (MDA-MB-435): 60 µM | TGI (CCRF-CEM leukemia): > 100 µM | TGI (HS 578T breast): > 100 µM | TGI (A549 NSCLC): > 100 µM | TGI (SF-295 CNS): > 100 µM | TGI (SN12C renal): > 100 µM | TGI (MDA-MB-231 breast): > 100 µM | TGI (EKVX NSCLC): > 100 µM | TGI (U251 CNS): > 56.7 µM | TGI (UO-31 renal): > 100 µM | TGI (SNB-75 CNS): > 100 µM | TGI (UACC-62 melanoma): > 100 µM | TGI (TK-10 renal): > 100 µM | TGI (BT-549 breast): > 100 µM | TGI (OVCAR-3 ovarian): > 100 µM | TGI (786-0 renal): > 100 µM | TGI (COLO 205 colon): > 100 µM | TGI (NCI-H226 lung): > 100 µM | TGI (NCI/ADR-RES ovarian): > 100 µM | TGI (CAKI-1 renal): > 100 µM | TGI (MOLT-4 leukemia): > 78.8 µM | TGI (SF-539 CNS): > 100 µM | TGI (RXF 393 renal): > 100 µM | TGI (SK-OV-3 ovarian): > 100 µM | TGI (LOX IMVI melanoma): > 100 µM | TGI (SF-268 CNS): > 100 µM | TGI (T-47D breast): > 100 µM | TGI (K-562 leukemia): > 94.3 µM | TGI (HOP-62 NSCLC): > 100 µM | TGI (ACHN renal): > 100 µM | TGI (M14 melanoma): > 100 µM | TGI (SNB-19 CNS): > 100 µM | TGI (HCC-2998 colon): > 100 µM | TGI (KM12 colon): > 100 µM
